Structures can show the parent of a compound that is named as a salt.
Experiments:
[1] = tested on: Hsp70 promoter; test: Hsp70 promoter-YFP reporter in SHSY5Y cells, flow cytometry; format: cell-based, human
Experimental: (§1) The Hsp co-inducing effect of the compounds on stress response was tested on B16 mouse melanoma and SHSY5Y human neuroblastoma cell lines stably transfected with Hsp promoter probing plasmids. This kind of promoter probing, using the promoter region of a given gene conjugated with fluorescent protein is used as a best and fastest test system for finding drugs which modulate the activity of the gene followed by the given promoter (Wyshocka et al., Mol. Cel. Biochem. 215:153-156, 2000).
(§2) Reporter plasmids, containing the Hsp70 and/or Hsp25 promoter conjugated to either YFP or GFP (yellow or green fluorescent protein), were stably transfected into the cells and the expression of YFP or GFP was followed by flow cytometry. Cells were either kept at 37° C. or exposed to heat shock at 42° C. for 1 hour followed by a 16 hour recovery period at 37° C. in the presence or absence of different concentrations of the test compound. After recovery the expression of YFP or GFP which is in straight correlation with the promoter activity of Hsp70 or Hsp27 genes was followed by measuring the fluorescence intensity of the cells by flow cytometry. Fluorescence intensity is in straight correlation with the amount of fluorescent protein (GFP or YFP) produced under the control of hsp promoter. The mean fluorescence intensity of YFP or GFP produced is shown as “Hsp promoter activity”.
The fluorescence intensity of YFP produced as a result of Hsp70 promoter activity was measured by flow cytometry.
(§3) Cells were homogenously distributed on 6-well plates in 1×10^5 cells/well density. B16-pHsp25-GFP and B16-pHsp70-YFP melanoma cells were grown in RPMI-1640 medium supplemented with 10% Fetal bovine serum (FBS), penicillin (200 units/ml), streptomycin (200 μg/ml) and 2 mM L-Glutamine. […] The changes in cells' fluorescence were detected using BD FACSCalibur flow cytometer.

[2] = tested on: Hsp25; test: Other in vitro effects, Hsp25 (Table 3); format: cell-based, mouse and human; set-up: key: +: co-inducing activity; −: silencing activity; 0: with the experimental methods applied no other HSP modulating effects could be identified
Experimental: as §1, §2, §3
SY-SY5Y and B16 cells were extracted in NP-40 lysis buffer (PBS pH 7.4, 1% protease inhibitor coctail and 1% Triton X-100). […] The immune complexes were detected with chemo-luminescent substrate of peroxidase according to the supplier's instructions. Images taken from the membranes were analyzed using AlphaEase FC software.

[3] = tested on: Hsp27; test: Other in vitro effects, Hsp27 (Table 3); format: cell-based; set-up: key: +: co-inducing activity; −: silencing activity; 0: with the experimental methods applied no other HSP modulating effects could be identified
Experimental: as §2

[4] = tested on: B16F10 melanoma cells; test: Lysosomal destabilization, FITC-conjugated dextran fluorescence; format: cell-based, mouse
Description: Emerging evidence argues that both classic apoptosis pathways and lysosomal death pathways must be suppressed for effective development and progression of cancer. Tumor invasion and metastasis are associated with altered lysosomal trafficking and increased expression of the lysosomal proteases termed cathepsins. […] Normal cells respond to death stimuli by undergoing caspase-dependent apoptosis, the best characterized form of programmed cell death. In contrast, cancer cells frequently escape spontaneous and therapy-induced caspase activation due to acquired mutations in the apoptotic machinery. Apoptosis-resistant cancer cells are, however, not completely resistant to cell death, but can die via alternative cell death pathways often involving non-caspase proteases such as lysosomal cathepsins. Therefore, development of novel anticancer drugs that can trigger alternative death pathways that are independent of commonly mutated apoptosis-regulating genes is of great importance. […] Lysosomal destabilization could be followed by measuring the fluorescence intensity of the pH sensitive FITC-conjugated dextran. Lysosomal pH was determined by allowing the B16F10 melanoma cells to endocytose different amount of FITC-conjugated dextran (40 kDa) (from 10 mg/ml stock) for 24 h. […] Fluorescence was measured by plate reader using an excitation and emission wavelengths of 485 nm and 538 nm respectively.

## COC(=O)C1=C(CCN(C)C)N(C)C(CCN(C)C)=C(C(=O)OC)C1c1ccc(C(F)(F)F)cc1 [Example 23, Dimethyl 4-(4-trifuoromethylphenyl)-2,6-bis-(2-dimethylaminoethyl)-1-methyl-1,4-dihydropyridine-3,5-dicarboxylate dihydrochloride]
[1]; 20 μM, SHSY5Y cells at 42° C., FIG. 1
  induction of Hsp70 gene activity: approximately 20 times
[1]; SHSY5Y cells, 37° C., no heat stress
  activity of the promoter of the hsp70 gene at 37° C.: does not affect the activity of the promoter of the hsp70 gene at 37 °C
[1]; SHSY5Y cells, relative to cells treated at 42° C. without the compound, FIG. 2
  increase in HSP70 expression: 23 fold
[2]
  Other in vitro effects: Hsp25: Hsp25 0
[3]
  Other in vitro effects: Hsp27: Hsp27 0
[4]
  Other in vitro effects (lysosomes): lysosome destabilization
[4]; Ex. 23 5 μM for 6 hours, compared to Siramesine (20 μm), FIG. 9
  fluorescence intensity of FITC-conjugated dextran (lysosomal pH, lysosomal destabilization): significantly higher fluorescence intensity

Reference: patent US10660789B2, “1,4-dihydropyridine derivatives with HSP modulating activity” (Richter Gedeon NYRT., priority 2011, dated 2020)
